Test results from PubChem BioAssay (NCI).
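Protocol summary: plate cells (96-well), add compound at 5 concentrations, incubate 48 h, interpolate endpoints linearly. GI50 marks 50% less growth. TGI marks complete inhibition of growth.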

Assays:
Experiment in all cases: NCI anticancer screen, dose series, 48 h
CCRF-CEM leukemia = tested on: CCRF-CEM leukemia
MCF7 breast = tested on: MCF7 breast
MDA-MB-231 breast = tested on: MDA-MB-231 breast
A498 renal = tested on: A498 renal
RPMI-8226 leukemia = tested on: RPMI-8226 leukemia
EKVX NSCLC = tested on: EKVX NSCLC
SNB-75 CNS = tested on: SNB-75 CNS
SF-268 CNS = tested on: SF-268 CNS
UACC-257 melanoma = tested on: UACC-257 melanoma
COLO 205 colon = tested on: COLO 205 colon

Structure (SMILES)	GI50 (CCRF-CEM leukemia) [µM]	GI50 (MCF7 breast) [µM]	TGI (MCF7 breast) [µM]	GI50 (MDA-MB-231 breast) [µM]	TGI (MDA-MB-231 breast) [µM]	GI50 (A498 renal) [µM]	TGI (A498 renal) [µM]	GI50 (RPMI-8226 leukemia) [µM]	TGI (RPMI-8226 leukemia) [µM]	GI50 (EKVX NSCLC) [µM]	TGI (EKVX NSCLC) [µM]	GI50 (SNB-75 CNS) [µM]	TGI (SNB-75 CNS) [µM]	GI50 (SF-268 CNS) [µM]	TGI (SF-268 CNS) [µM]	GI50 (UACC-257 melanoma) [µM]	TGI (UACC-257 melanoma) [µM]	GI50 (COLO 205 colon) [µM]	TGI (COLO 205 colon) [µM]	TGI (CCRF-CEM leukemia) [µM]
O=[N+]([O-])c1ccc(Sc2cccc[n+]2[O-])c2nonc12	1.42	1.77	10.8	4.7	16	4.88	91.9	2.12	> 100	9.59	31.7	11.1	39.6	5.27	21.1	11.5	24.7	0.949	2.51	–
O=C1/C(=C/c2ccc(F)cc2)COc2ccc(O)c(O)c21	0.313	1.02	> 100	1.43	6.25	12.5	28.3	0.26	0.714	3.29	18.4	1.71	> 100	2.51	9.27	2.99	17.7	2.76	10.3	1.46
CC(=O)c1cc2c(Br)cccc2oc1=O	–	–	> 100	–	> 100	–	> 100	–	> 100	–	> 100	–	> 100	–	> 100	–	> 100	–	> 100	> 100
Nc1n[n+]([O-])c2ccc(Cl)cc2[n+]1[O-]	–	–	> 100	–	> 100	–	96.6	–	> 100	–	80.1	–	> 100	–	> 100	–	54.3	–	30.9	> 100
O=C(CCN1CCCC1)Nc1ccc2c(Nc3ccc(F)cc3)c3ccccc3nc2c1	0.274	0.147	1.89	1.48	3.34	1.03	4.89	0.981	5.51	1.89	4.69	1.37	2.72	1.19	2.82	1.97	4.12	1.3	3.51	11.1
O=C1OC(c2ccc([N+](=O)[O-])cc2)=N/C1=C\c1ccc(Cl)cc1	–	–	> 100	–	> 100	–	> 100	–	> 100	–	> 100	–	> 100	–	> 100	–	> 100	–	> 100	> 100
C[C@H]1C[C@@H](n2c(Nc3ccc(OC(F)(F)F)cc3)nc3cc(CCC(=O)O)ccc32)CC(C)(C)C1	16.2	6.29	22.6	16	32.9	11.1	23.2	10.1	50.9	10.5	32.2	13.8	28	12.1	27.7	16.6	39.4	18.8	39.4	44.5
